Entries after “also recorded” stand apart in the source; their conditions may differ.
Assays:
[1] = system: human renal glomerular microvascular endothelial cells; assay: ECIS transendothelial electrical resistance (TER), glomerular endothelial cells; type: cell-based
Experimental: Assays were performed to determine the effect of DA-DKP on transendothelial electrical resistance (TER) of human renal glomerular microvascular endothelial cells (ACBRI 128, Cell Systems Corporation (exclusive distributor for Applied Cell Biology Research Institute), Kirkland, Wash.). Electrical resistance was measured using the electric cell-substrate impedance sensing (ECIS) system (ECISZθ, obtained from Applied Biophysics) with 8-well multiple electrode plates (8W10E). Each well of the plates was coated with 5 μg/cm^2 fibronectin in HBSS by adding the fibronectin in a volume of 100 μl per well and incubating the plates for 30 minutes in a 37° C. incubator with 5% CO2. The fibronectin solution was removed, and 400 μl of EGM-2 culture medium (Lonza) was added to each well. The plates were connected to the ECISZθ system and were electrically stabilized. The EGM-2 medium was aspirated and replaced with 200 μl of EGM-2 culture medium containing 100,000 cells per well. The plates were reconnected to the ECISZθ system and incubated for 24 hours in a 37° C. incubator with 5% CO2. The EGM-2 medium was aspirated and replaced with 400 μl of fresh EGM-2 culture medium per well. The plates were reconnected to the ECISZθ system and incubated for 6 hours in a 37° C. incubator with 5% CO2. Solutions of the test compounds in HBSS were prepared and placed in the incubator to equilibrate. The test compounds were then added to appropriate wells at the following final concentrations: DA-DKP (100 μM) (Sigma) and TNFα (1 ng/ml) (Sigma). ECIS (resistance) was monitored for 90 hours.

[2] = system: human retinal endothelial cells; assay: ECIS transendothelial electrical resistance (TER), retinal endothelial cells, 96-well plates; type: cell-based
Experimental: Assays were performed to determine the effect of DA-DKP on transendothelial electrical resistance (TER) of human renal glomerular microvascular endothelial cells (ACBRI 128, Cell Systems Corporation (exclusive distributor for Applied Cell Biology Research Institute), Kirkland, Wash.). Electrical resistance was measured using the electric cell-substrate impedance sensing (ECIS) system (ECISZθ, obtained from Applied Biophysics) with 8-well multiple electrode plates (8W10E). Each well of the plates was coated with 5 μg/cm^2 fibronectin in HBSS by adding the fibronectin in a volume of 100 μl per well and incubating the plates for 30 minutes in a 37° C. incubator with 5% CO2. The fibronectin solution was removed, and 400 μl of EGM-2 culture medium (Lonza) was added to each well. The plates were connected to the ECISZθ system and were electrically stabilized. […] ECIS (resistance) was monitored for 90 hours.
Assays were performed to determine the effect of DA-DKP on transendothelial electrical resistance (TER) of human retinal endothelial cells (ACBRI 181, Cell Systems Corporation (exclusive distributor for Applied Cell Biology Research Institute), Kirkland, Wash.). Electrical resistance was measured using the electric cell-substrate impedance sensing (ECIS) system (ECISZθ, obtained from Applied Biophysics) as described in Example 1, but using 96-well multiple electrode plates […].

[3] = system: human retinal endothelial cells; assay: Actin stress fiber formation (rhodamine-phalloidin F-actin staining); type: cell-based; settings: 15 minutes and 3 hours
Experimental: Passage 12 human retinal endothelial cells (ACBRI 181, Cell Systems Corporation (exclusive distributor for Applied Cell Biology Research Institute), Kirkland, Wash.) were seeded into 16-chamber glass slides coated with 5 μg/cm^2 fibronectin at 5000 cells per well in a total volume of 200 μl of EGM-2 medium (Lonza). The slides were cultured in a 37° C. incubator with 5% CO2 for 48 hours with daily medium changes. Then, the test compounds (DA-DKP, S1P and TNFα), diluted in Hanks Balanced Salt Solution (HBSS; Lonza), were added to give the following final concentrations: DA-DKP (100 μM) (Sigma), TNFα (1 ng/ml) (Sigma), and S1P (1 μM) (Sigma). The slides were incubated with the test compounds for 15 minutes or 3 hours in a 37° C. incubator with 5% CO2. After this incubation, the medium was aspirated, and the cells were fixed using 3.6% formaldehyde in phosphate buffered saline (PBS) for ten minutes at room temperature. All wells were then washed two times with 100 μl PBS. The cells were permeabilized using a 0.1% Triton X-100 in PBS for 5 minutes. All wells were then washed two times with 100 μl PBS, and 50 μl of a 1:40 dilution of rhodamine-phalloidin (Invitrogen) in PBS was added to the cells to stain for F-actin and left on the cells for 20 minutes at room temperature. All wells were then washed two times with 100 μl PBS. Then 100 μl PBS was added to each well and the cells were observed and photographed using an inverted microscope using a rhodamine (ex530/em590) filter.

RhoA = assay: Rho activation assay (GLISA) in retinal endothelial cells; type: cell-based, human
Experimental: This experiment was performed using a commercially-available Rho activation assay (GLISA) purchased from Cytoskeleton, Denver, Colo., following the manufacturer's protocol. Briefly, passage 8 or 12 human retinal endothelial cells (ACBRI 181, Applied Cell Biology Research Institute, Kirkland, Wash.) were cultured on fibronectin-coated (1 μg/cm^2) 6-well tissue culture plates using EGM-2 culture medium (Lonza) for 24 hours in a 37° C. incubator with 5% CO2 (30,000 cells/well in total volume of 3 ml). Then, the medium was aspirated and replaced with Ultraculture medium supplemented with 0.1% fetal bovine serum, L-glutamine, sodium pyruvate, penicillin/streptomycin and ITSS (insulin, transferrin sodium selenium) (all from Lonza) to serum starve the cells and reduce the background level of RhoA. The cells were cultured for 24 hours in a 37° C. incubator with 5% CO2. Test compounds diluted in HBSS were placed in the incubator to equilibrate before addition to the cells. Then, 150 μl of each test compound was added to the appropriate culture wells, and the plates were incubated in the incubator for an additional 15 minutes. Then, thrombin was added to appropriate wells. After 1 minute, the cells were washed one time with 1.5 ml phosphate buffered saline and were then lysed with 100 μl GLISA lysis buffer supplemented with protease inhibitors. The extracts were scraped, transferred to microcentrifuge tubes and transferred to ice to preserve the active form of RhoA. All extracts were then cleared of debris by spinning at 10,000 rpms for 2 minutes at 4° C. The supernatants were transferred to new tubes and placed back on ice. Aliquots of each extract were removed for the GLISA assay and for protein determinations. All protein concentrations were within 10%, and the extracts were used at the achieved concentrations (equates to 15 total protein per well). The GLISA assay was performed using the reagents supplied in the kit.

[4] = system: passage 6 human retinal endothelial cells; assay: ECIS transendothelial electrical resistance (TER), passage 6 retinal endothelial cells; type: cell-based; settings: for ECIS as compared to untreated cells: monitored 50 hours
Experimental: Assays were performed to determine the effect of MR-DKP (a diketopiperazine wherein R^1 in formula I is the side chain of methionine and R^2 is side chain of arginine) on transendothelial electrical resistance (TER) of passage 6 human retinal endothelial cells (Applied Cell Systems Corporation (exclusive distributor for Applied Cell Biology Research Institute), Kirkland, Wash.). Electrical resistance was measured using the electric cell-substrate impedance sensing (ECIS) system (ECISZθ, obtained from Applied Biophysics) with 8-well multiple electrode plates (8W10E). Each well of the plates was stabilized by adding 250 μl of 10 mM cysteine (Sigma) in sterile water to each well and incubating for 30 minutes at room temperature. The wells were then washed two times with 150 μl of sterile water to remove the cysteine. All wells were then coated with 10 μg/cm^2 collagen by diluting the stock solution (0.5 mg/ml Type IV collagenin 0.25% acetic acid (Sigma) in sterile water and adding 150 μl of the resulting solution to each well. The collagen solution was incubated on the plates at 37° C. for 120 minutes and then removed. The wells were washed two times with 400 μl sterile water to remove the collagen. Next, 400 μl of EGM-2 culture medium (Lonza) was added to each well. The plates were connected to the ECISZθ system and were electrically stabilized. The EGM-2 medium was aspirated and replaced with 400 μl of EGM-2 culture medium containing 100,000 cells per well. The plates were reconnected to the ECISZθ system and incubated for 24 hours in a 37° C. incubator with 5% CO2. The EGM-2 medium was aspirated and replaced with 400 μl of EGM-2 culture medium. The plates were reconnected to the ECISZθ system and incubated for 2 hours in a 37° C. incubator with 5% CO2. Solutions of the test compound in HBSS were prepared and placed in the incubator to equilibrate. The test compound was then added to appropriate wells at the following final concentrations: MR-DKP (50 μM and 100 ECIS (resistance) was monitored for 50 hours.
Example 5 was repeated, except that the diketopiperazine used was YE-DKP (a diketopiperazine wherein R^1 in formula I is the side chain of glutamic acid and R^2 is the side chain of tyrosine). […] The increase was about 20% at its maximum.

[5] = passage 8 cells, 100 μM + 0.1 U/ml thrombin
[6] = passage 8 cells, 100 μM, no thrombin
[7] = passage 12 cells, 100 μM + 0.1 U/ml thrombin
[8] = passage 12 cells, 100 μM, no thrombin
[9] = passage 12 cells, 1.0 μM + 0.1 U/ml thrombin
[10] = passage 12 cells, 1.0 μM, no thrombin
[11] = passage 8 cells, 10.0 μM + 0.1 U/ml thrombin
[12] = passage 8 cells, 10.0 μM, no thrombin
[13] = passage 12 cells, 10.0 μM + 0.1 U/ml thrombin
[14] = passage 12 cells, 10.0 μM, no thrombin

C[C@@H]1NC(=O)[C@H](CC(=O)O)NC1=O [DA-DKP]
effect on TNFα-induced drop in ECIS ([1]; 100 μM DA-DKP with TNFα 1 ng/ml, not significant): prevent some of the TNFα-induced drop in ECIS | ECIS increase persisting after treatment ([1]; 100 μM alone): 35 h | start of ECIS increase after treatment ([1]; 100 μM alone): about 5.0 hours | time at which ECIS increase reached significance after treatment ([1]; 100 μM alone): 12 h | ECIS (resistance) as compared to untreated cells ([1]; 100 μM alone, glomerular endothelial cells, monitored 90 hours): increase of ECIS | ECIS (TER) increase, comparison of doses ([2]; 100 μM): greatest increase | ECIS (TER) ([2]; doses 0.5 μM, 5.0 μM, 50 μM and 100): dose-dependent increase in ECIS (TER) | effect on cortical rings of S1P ([3]; 100 μM DA-DKP with S1P 1 μM): enhance the cortical rings; also recorded: strengthen the protective effects of S1P | effect on stress fibers caused by TNFα ([3]; 100 μM DA-DKP with TNFα 1 ng/ml): decreased the stress fiber formation and/or the thickness of the fibers; also recorded: reversed the formation of stress fibers induced by TNFα | Mean OD (active RhoA) (RhoA; [5]): 0.377 | Percent Inhibition vs. Thrombin (RhoA; [5]): 40.04% | Mean OD (active RhoA) (RhoA; [6]): 0.110 | Percent Inhibition vs. Untreated Control (RhoA; [6]): −7.88% | Mean OD (active RhoA) (RhoA; [7]): 0.752 | Percent Inhibition vs. Thrombin (RhoA; [7]): 46.82% | Mean OD (active RhoA) (RhoA; [8]): 0.389 | Percent Inhibition vs. Untreated Control (RhoA; [8]): 14.52%

C[C@@H]1C[C@H]2[C@@H]3CCC4=CC(=O)C=C[C@]4(C)[C@@]3(F)[C@@H](O)C[C@]2(C)[C@@]1(O)C(=O)CO [Dexamethasone]
Mean OD (active RhoA) (RhoA; [9]): 0.826 | Percent Inhibition vs. Thrombin (RhoA; [9]): 33.48% | Mean OD (active RhoA) (RhoA; [10]): 0.428 | Percent Inhibition vs. Untreated Control (RhoA; [10]): 5.83%

CSCC[C@@H]1NC(=O)[C@H](CCCNC(=N)N)NC1=O [MR-DKP]
ECIS increase at its maximum ([4]; 50 μM): around 20% | brief elevation in resistance, time window ([4]; 50 μM): 2 to 5 h | start of ECIS increase ([4]; 50 μM): about 15 hours | time at which ECIS increase became significant ([4]; 50 μM): about 18 hours | time at which resistance increased again ([4]; 50 μM): about 30 hours | time at which resistance returned to the levels of the control ([4]; 50 μM): 28 to 29 h | time of reaching significance again ([4]; 50 μM): about 33 hours | persistence of ECIS increase ([4]; 50 μM, after the second increase): persisted for the remainder of the experiment | ECIS as compared to untreated cells ([4]; 50 μM): increase in ECIS | ECIS increase at its maximum ([4]; 100 μM): around 20% | persistence of ECIS increase ([4]; 100 μM): persisted for the remainder of the experiment | start of ECIS increase ([4]; 100 μM): about 15 hours | time at which ECIS increase became significant ([4]; 100 μM): about 18 hours | time of reaching significance again ([4]; 100 μM): about 33 hours | ECIS as compared to untreated cells ([4]; 100 μM): increase in ECIS

O=c1cc(N2CCOCC2)oc2c(-c3ccccc3)cccc12 [PI3 kinase inhibitor LY 294002]
Mean OD (active RhoA) (RhoA; [11]): 0.433 | Percent Inhibition vs. Thrombin (RhoA; [11]): 27.86% | Mean OD (active RhoA) (RhoA; [12]): 0.056 | Percent Inhibition vs. Untreated Control (RhoA; [12]): 45.32% | Mean OD (active RhoA) (RhoA; [13]): 0.685 | Percent Inhibition vs. Thrombin (RhoA; [13]): 58.73% | Mean OD (active RhoA) (RhoA; [14]): 0.370 | Percent Inhibition vs. Untreated Control (RhoA; [14]): 18.70%

Source: patent US20200016152A1, “TREATMENT OF DISEASES” (Ampio Pharmaceuticals, Inc., priority 2010, published 2020)
